Results from patent US11672802B2, “Induction of immune tolerance by using methotrexate” (Genzyme Corporation, priority 2011, dated 2023).
Entries after “also recorded” stand apart in the source; their conditions may differ.

Columns and labels:
[1] = tested on: CD4+ and CD8+ T cells, T regulatory cells, B cells; experiment: Flow cytometry of lymphocyte populations in mATG-treated mice; format: in vivo, C57BL/6 mice
Experimental: For splenocyte and lymph node cell preparations single-cell suspensions were generated from harvested mouse spleens or inguinal and mesenteric lymph nodes by homogenization between frosted glass slides into PBS containing 2% FCS. For splenocyte preparations, red blood cells were lysed by 1-2 minute incubation with a red blood cell lysis solution (BD Biosciences, San Diego, Calif.). Blood was isolated by retro-orbital bleeding and cell preparations were performed by lysing red blood cells with red blood cell lysing solution (BD Biosciences) for 20-30 minutes. For all tissue preparations, live cells were enumerated using the ViCell automated counter (Beckman Coulter, Fullerton, Calif.). Following isolation, all cell preparations were washed with PBS/2% FCS prior to use in the assays described below.
For evaluation of cell populations within different tissues, single cell suspensions of the tissues were incubated with fluorochrome-conjugated antibodies that included anti-mouse CD4, CD8, CD25, CD44, CD62L (all antibodies from BD Biosciences or eBioscience, San Diego, Calif.). Intracellular Foxp3 expression analysis was performed according to the anti-Foxp3 manufacturer's protocol (eBiosciences, San Diego, Calif.). Following incubation with the antibodies, cells were washed and analyzed by flow cytometry (FACSCanto, BD Biosciences and FCS Express software, De Novo Software, Los Angeles, Calif.).

[2] = tested on: allogeneic heart transplant; experiment: Murine allogeneic heart transplant model, graft survival; format: in vivo, mice (C57BL/6 donor, Balb/c recipient); conditions: treatment alone
Experimental: Polyclonal antibody mATG was administered as an intraperitoneal injection of 5 mg/kg every four weeks or as two 20 mg/kg doses given four days apart when in the transplant setting with the first dose given on the day of transplant (day 0).
C57BL/6 and BALB/c mice were obtained from Charles River (Kingston, N.Y. or Raleigh, N.C.) and used in these experiments between 8 and 13 weeks of age. The donor allogenic C57BL/6 mice were first anesthetized with an intraperitoneal injection of Ketamine (Fort Dodge Animal Health/Pfizer, Fort Dodge, Iowa) and Xylazine (Lloyd, Shenandoah, Iowa) and a median sternotomy was performed. […] The ascending aorta and pulmonary artery were then transected, the graft removed from the donor and the heart was stored in ice-cold saline until engraftment. A recipient mouse (Balb/c) was similarly anesthetized and prepped as described above for donor mice, except that the abdominal cavity was opened. […] After hemostasis was confirmed, the abdominal muscle was closed with a running 5-O Vicryl suture (Ethicon, Johnson & Johnson, Somerville, N.J.), and the skin closed with running 5-0 Ethilon suture (Ethicon). Standard post-op pain assessment and management was performed. Grafts were assessed by palpation 5-7 times per week for the first 30 day, and then 3-4 times per week until the end of the study.

[3] = tested on: anti-allograft antibodies; experiment: Serum alloantibody levels (binding to allogeneic fibroblasts); format: in vivo, mice; conditions: day 21, allogeneic heart transplant
Experimental: Serum alloantibody levels were determined by incubating serum from cardiac transplanted or normal mice at 1:50 dilutions with an SV40 transformed C57BL/6 fibroblast line (SVB6) followed by detection of fibrobast bound antibodies (alloantibodies) using FITC rabbit anti-mouse IgG (Dako, Carpinteria, Calif.) and by flow cytometric analysis. Geometric mean fluorescent intensities of serum stained fibroblasts were divided by isotype control stained fibroblasts to normalize alloantibody levels between experiments.

[4] = tested on: cytokines (BAFF, TNF-alpha, MCP-1, IL-13, IL-6, IL-12); experiment: Serum cytokine levels in alemtuzumab-treated mice; format: in vivo, huCD52 Tg mice
anti-mATG IgG = experiment: Anti-mATG (anti-rabbit) IgG ELISA titers in mice treated with mATG; format: in vivo, C57BL/6 mice; design: reduction of anti-mATG antibody responses, area under the effect curves / reduction of anti-mATG IgG titers, area under the effect curves / reduction of anti-mATG IgG titers: concentration or dose not given beside the values
Experimental: The levels of anti-mATG IgG in mouse serum were analyzed by enzyme linked immunosorbent assay (ELISA). […] End-point titers were defined as the […] dilution that averages above an absorbance of 0.100 using Softmax software (Molecular Devices, Sunnyvale, Calif., USA).

[5] = Circulating mATG levels (mATG-specific IgG ELISA); format: in vivo, mice
Experimental: Mouse serum was determined by ELISA. […] Following blocking with 0.5% BSA (high purity), standard controls and serum samples were diluted as necessary and added in duplicate to the wells of the coated plates and incubated at 36-38° C. for 1 hour with gentle shaking. […] Final concentrations were interpolated off the standard curve. It was predetermined that the measurement of mATG-specific IgG by this method were only modestly affected by titers of anti-mATG IgG that were greater than 218,000.

anti-alemtuzumab IgG = experiment: Anti-alemtuzumab IgG ELISA titers in huCD52 Tg mice
Source text: Alemtuzumab-related studies employed human CD52 (huCD52) transgenic (Tg) mice between 6-12 weeks of age that were obtained from Charles River Laboratories/Genzyme Corp. Mice were housed and maintained in accordance with the Guide for Care and Use of Laboratory Animals and under American Association for Accreditation of Laboratory Animals Care I accreditation and all animal protocols used in these studies were approved by the Institutional Animals Care and Use Committee.
Monoclonal antibody alemtuzumab was administered intravenously as either a single injection of 0.5 mg/kg or in either a three or five day cycle of 0.5 mg/kg/day.
Methotrexate (Calbiochem catalog #454125) was administered at 0.5, 1.0, 2.0 or 5 mg/kg by intraperitoneal injection for 1-3 cycles, where each cycle equals either three, six or seven consecutive days of injection depending upon the experiment.
Mice were bled 4-6 days following alemtuzumab treatment and specific anti-alemtuzumab IgG was measured by ELISA. Briefly, 96-well plates (Corning Inc., Corning, N.Y., USA) were coated overnight with 3 μg/ml of alemtuzumab in PBS (pH 7.2). Following blocking with 0.1% BSA in PBS, serial dilutions of serum were added in duplicate to alemtuzumab-coated plates and incubated at 37° C. for 1 h. The plates were washed, and horseradish peroxidase-conjugated goat anti-mouse IgG secondary antibody (Southern Biotechnology Associates, Birmingham, Ala., USA) was added and allowed to incubate for 1 h at 37° C. Following a final wash, TMB substrate (BioFx, Owings Mills, Md., USA) was added and allowed to develop for 15 min at room temperature. The reaction was stopped by the addition of 1 N HCl and absorbance values were read at 450/650 nm on an ELISA plate reader (Molecular Devices, Sunnyvale, Calif., USA). End-point titers were defined as the antilog of the logarithmically transformed sample dilution interpolated at an absorbance value of 0.2 using Excel software (Microsoft, Redmond, Wash., USA).

[6] = methotrexate 1 mg/kg/day, three alemtuzumab treatment cycles

CN(Cc1cnc2nc(N)nc(N)c2n1)c1ccc(C(=O)N[C@@H](CCC(=O)O)C(=O)O)cc1 [methotrexate, Methotrexate]
levels of circulating CD4+ and CD8+ T cells ([1]; after fifth monthly mATG treatment, mATG alone or with one cycle of methotrexate): significantly depleted | depletion of CD4+, CD8+, T regulatory T cells and total CD19+ B cells ([1]; methotrexate alone, animals receiving an allogeneic transplant): did not deplete | depletion of CD4+, CD8+, T regulatory T cells and total CD19+ B cells ([1]; normal animals, blood and spleen): does not deplete | percentage of T regulatory cells in spleen and blood ([1]; single cycle of methotrexate, after fifth monthly mATG treatment): enhanced the ability of mATG to increase the percentage of T regulatory cells | absolute number of activated follicular and activated transitional 3 B cells ([1]; spleen, single cycle of methotrexate, around fifth mATG dose): no statistically significant decreases | average extended graft survival [2]: 20 days | anti-allograft antibody (alloantibody) levels [3]: significantly reduce; also recorded: significantly lower | levels of pro-inflammatory cytokines MCP-1, IL-13, IL-6 and IL-12 ([4]; 24 hours after fifth alemtuzumab dose, methotrexate 5 mg/kg three days at first dose): decreased | TNF-alpha levels ([4]; methotrexate 2 mg/kg, one week after second cycle of alemtuzumab): statistically significant increase | BAFF levels ([4]; serum, 24 hours after 5th dose of alemtuzumab, with vs without methotrexate): no difference | reduction of anti-mATG IgG titers (anti-mATG IgG; a single course of methotrexate): > 95% | anti-mATG (anti-rabbit IgG) titer lower than with mATG alone (anti-mATG IgG; mATG and a single cycle of methotrexate vs mATG alone): 100 fold | suppression of anti-mATG IgG responses, area under the effect curves (anti-mATG IgG; methotrexate 5 mg/kg ip six consecutive days, mATG 25 mg/kg x2, 3 days apart, through eight weeks): 95% | reduction of anti-mATG IgG titers, area under the effect curves (anti-mATG IgG; single course of methotrexate, mATG re-challenge after eight weeks rest): 99% | anti-mATG IgG titer (anti-mATG IgG; single cycle of methotrexate around first of five monthly mATG treatments): approximately 50,000 | long-lived reduction in ADA (anti-mATG IgG; single cycle of methotrexate within first week of a protein therapy, over many months of dosing (summary statement)): greater than 95% | reduction of anti-mATG IgG titers, area under the effect curves (anti-mATG IgG; single cycle regimen, five monthly mATG (FIG. 4C)): 98% | reduction of anti-mATG IgG titers, area under the effect curves (anti-mATG IgG; three cycle regimen, five monthly mATG (FIG. 4C)): 69% | reduction of anti-mATG IgG titers, area under the effect curves (anti-mATG IgG; three cycle regimen, mATG re-challenge after eight weeks rest): 85% | anti-mATG antibody titers (anti-mATG IgG; three cycles of methotrexate 5 mg/kg with first three monthly mATG treatments): 816,000 | reduction of anti-mATG antibody responses, area under the effect curves (anti-mATG IgG; three cycles of methotrexate, five monthly mATG (FIG. 4A)): 79% | circulating mATG levels ([5]; heart transplant model, seven days after first mATG administration, mATG alone or with methotrexate): significantly higher | levels of circulating mATG ([5]; months 3 and 5 of monthly mATG, alone or with single cycle methotrexate 5 mg/kg x3): measurable levels | reduction of anti-alemtuzumab responses (anti-alemtuzumab IgG; methotrexate 1 mg/kg, single three-dose cycle, five monthly alemtuzumab 0.5 mg/kg): 88% | mice in which titers were controlled (anti-alemtuzumab IgG; [6]): 7 of the 8 | reduction of anti-alemtuzumab titers (anti-alemtuzumab IgG; [6]): 79% | reduction of ADA, area under the effect curves (anti-alemtuzumab IgG; methotrexate 2 mg/kg/day, three alemtuzumab treatment cycles): 98% | reduction of anti-alemtuzumab IgG responses (anti-alemtuzumab IgG; methotrexate 5 mg/kg, single three-dose cycle, five monthly alemtuzumab 0.5 mg/kg): 99% | anti-alemtuzumab antibody titers (anti-alemtuzumab IgG; three daily doses 5 mg/kg/day methotrexate, 24 hours after fifth monthly alemtuzumab dose): reduced
